Experimental data from patent publication US20060281768A1, “THIENOPYRIMIDINE AND THIENOPYRIDINE KINASE MODULATORS” (priority 2005, published 2006).

Legend:
wild-type FLT3 receptor = target: T1, wild-type FLT3 receptor (Homo sapiens, UniProt P36888); experiment: Cell-Based FLT3 Receptor Elisa (Baf3 FLT3 cells, FLT3 phosphorylation); conditions: Flt ligand stimulated FLT3 phosphorylation, 1 hour compound incubation, uncertainty +20%
T1 construct: host or cells: Baf3 (murine B cell lymphoma line)
T1 sequence (P36888 27-993): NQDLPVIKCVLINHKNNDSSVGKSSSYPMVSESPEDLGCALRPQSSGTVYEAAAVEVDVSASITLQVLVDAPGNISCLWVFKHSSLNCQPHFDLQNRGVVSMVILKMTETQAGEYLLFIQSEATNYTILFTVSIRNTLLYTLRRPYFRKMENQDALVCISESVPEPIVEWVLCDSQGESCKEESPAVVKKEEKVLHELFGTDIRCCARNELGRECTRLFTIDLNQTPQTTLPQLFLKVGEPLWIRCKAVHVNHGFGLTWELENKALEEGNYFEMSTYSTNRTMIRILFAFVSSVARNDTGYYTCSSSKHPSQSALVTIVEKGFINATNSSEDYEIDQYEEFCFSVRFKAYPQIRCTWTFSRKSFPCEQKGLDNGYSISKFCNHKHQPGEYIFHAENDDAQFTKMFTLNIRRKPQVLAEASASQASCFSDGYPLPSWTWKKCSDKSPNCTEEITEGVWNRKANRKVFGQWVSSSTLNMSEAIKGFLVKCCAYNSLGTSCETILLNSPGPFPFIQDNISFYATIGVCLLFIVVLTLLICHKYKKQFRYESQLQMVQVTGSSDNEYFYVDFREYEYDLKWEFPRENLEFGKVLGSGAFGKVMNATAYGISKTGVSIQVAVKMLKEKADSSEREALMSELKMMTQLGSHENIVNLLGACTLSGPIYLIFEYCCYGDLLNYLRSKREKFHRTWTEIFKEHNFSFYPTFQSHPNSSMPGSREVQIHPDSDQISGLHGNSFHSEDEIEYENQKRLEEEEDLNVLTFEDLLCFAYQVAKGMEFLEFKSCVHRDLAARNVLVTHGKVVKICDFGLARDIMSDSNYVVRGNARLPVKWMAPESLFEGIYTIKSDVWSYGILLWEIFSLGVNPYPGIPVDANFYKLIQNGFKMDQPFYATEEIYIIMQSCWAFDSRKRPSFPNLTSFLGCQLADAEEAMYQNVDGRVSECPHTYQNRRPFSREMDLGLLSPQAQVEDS
Protocol: Cells overexpressing the FLT3 receptor were obtained from Dr. Michael Heinrich (Oregon Health and Sciences University). The Baf3 FLT3 cell lines were created by stable transfection of parental Baf3 cells (a murine B cell lymphoma line dependent on the cytokine IL-3 for growth) with wild-type FLT3. Cells were selected for their ability to grow in the absence of IL-3 and in the presence of FLT3 ligand.
Baf3 cells were maintained in RPMI 1640 with 10%FCS, penn/strep and 10 ng/mL FLT ligand at 37° C., 5% CO2. To measure direct inhibition of the wild-type FLT3 receptor activity and phosphorylation a sandwich ELISA method was developed similar to those developed for other RTKs (3,4). 200ul of Baf3FLT3 cells (1×10^6/ml) were plated in 96 well dishes in RPM11640 with 0.5% serum and 0.01ng/ml IL-3 for 16 hours prior to 1 hour compound or DMSO vehicle incubation. Cells were treated with 100 ng/ml Flt ligand (R&D Systems Cat# 308-FK) for 10 min. at 37° C. Cells were pelleted, washed and lysed in 100ul HNTG buffer (50 mM Hepes, 150 mM NaCl, 10% Glycerol, 1% Triton -X-100, 10 mM NaF, 1 mM EDTA, 1.5 mM MgCl2, 10 mM NaPyrophosphate) supplemented with phosphatase (Sigma Cat# P2850) and protease inhibitors (Sigma Cat #P8340). Lysates were cleared by centrifugation at 1000×g for 5 minutes at 4° C. Cell lysates were transferred to white wall 96 well microtiter (Costar #9018) plates coated with 50ng/well anti-FLT3 antibody (Santa Cruz Cat# sc-480) and blocked with SeaBlock reagent (Pierce Cat#37527). Lysates were incubated at 4° C. for 2 hours. Plates were washed 3× with 200ul/well PBS/0.1% triton-X-100. Plates are then incubated with 1:8000 dilution of HRP-conjugated anti-phosphotyrosine antibody (Clone 4G10, Upstate Biotechnology Cat#16-105) for 1 hour at room temperature. Plates were washed 3× with 200ul/well PBS/0.1% triton-X-100. Signal detection with Super Signal Pico reagent (Pierce Cat#37070) was done according to manufacturer's instruction with a Berthold microplate luminometer. All data points are an average of triplicate samples. […] Inhibition and IC50 data analysis was done with GraphPad Prism using a non-linear regression fit with a multiparamater, sigmoidal dose-response (variable slope) equation.

MV4-11 cells = experiment: Growth inhibition of MV4-11 cells (CellTiterGlo); format: cell-based; conditions: Homo sapiens, 72 hours, uncertainty +20%
Protocol: FLT3 specific growth inhibition was measured in the leukemic cell line MV4-11 (ATCC Number: CRL-9591). […] MV4-11 cells cannot grow and survive without active FLT31TD.
To measure proliferation inhibition by test compounds the luciferase based CellTiterGlo reagent (Promega) was used. Cells are plated at 10,000 cells per well in 100ul of in RPMI media containing penn/strep, 10% FBS and lng/ml GM-CSF or 1 ng/ml IL-3 for MV4-11 and Baf3 cells respectively.
Compound dilutions or 0.1% DMSO (vehicle control) are added to cells and the cells are allowed to grow for 72 hours at standard cell growth conditions (37° C., 5% CO2). Total cell growth is quantified as the difference in luminescent counts (relative light units, RLU) of cell number at Day 0 compared to total cell number at Day 3 (72 hours of growth and/or compound treatment). One hundred percent inhibition of growth is defined as an RLU equivalent to the Day 0 reading. Zero percent inhibition is defined as the RLU signal for the DMSO vehicle control at Day 3 of growth. All data points are an average of triplicate samples. […] Inhibition and IC50 data analysis was done with GraphPad Prism using a non-linear regression fit with a multiparamater, sigmoidal dose-response (variable slope) equation.
MV-411 cells expressed the FLT3 internal tandem duplication mutation, and thus were entirely dependent upon FLT3 activity for growth. […] In contrast, the Baf3 cell proliferations is driven by the cytokine IL-3 and these cells are used as a non-specific toxicity control for test compounds.

FLT3 571-993 = target: T2, FLT3 571-993 (Homo sapiens, UniProt P36888); experiment: FLT3 Fluorescence Polarization Kinase Assay; format: biochemical; conditions: 10 nM FLT3 571-993, 150 uM ATP, 30 minutes; uncertainty +10%
T2 construct: 10 nM FLT3 571-993, 20 ug/mL poly Glu4Tyr
T2 sequence (P36888 571-993): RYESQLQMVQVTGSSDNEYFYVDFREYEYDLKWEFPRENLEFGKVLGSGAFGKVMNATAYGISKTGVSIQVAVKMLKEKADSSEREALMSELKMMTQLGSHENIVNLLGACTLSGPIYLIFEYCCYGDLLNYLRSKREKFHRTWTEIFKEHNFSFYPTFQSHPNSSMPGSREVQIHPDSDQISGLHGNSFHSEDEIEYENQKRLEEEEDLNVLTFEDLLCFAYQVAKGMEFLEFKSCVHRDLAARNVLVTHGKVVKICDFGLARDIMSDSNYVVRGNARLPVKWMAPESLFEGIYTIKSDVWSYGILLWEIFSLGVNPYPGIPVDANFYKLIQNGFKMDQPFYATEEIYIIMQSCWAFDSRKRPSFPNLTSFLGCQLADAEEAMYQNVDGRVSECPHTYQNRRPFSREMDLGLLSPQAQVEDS
Protocol: The FLT3 FP assay utilizes the fluorescein-labeled phosphopeptide and the anti-phosphotyrosine antibody included in the Panvera Phospho-Tyrosine Kinase Kit (Green) supplied by Invitrogen. When FLT3 phosphorylates poly Glu4Tyr, the fluorescein-labeled phosphopeptide is displaced from the anti-phosphotyrosine antibody by the phosphorylated poly Glu4Tyr, thus decreasing the FP value. The FLT3 kinase reaction is incubated at room temperature for 30 minutes under the following conditions: 10 nM FLT3 571-993, 20 ug/mL poly Glu4Tyr, 150 uM ATP, 5mM MgCl2, 1% compound in DMSO. The kinase reaction is stopped with the addition of EDTA. The fluorescein-labeled phosphopeptide and the anti-phosphotyrosine antibody are added and incubated for 30 minutes at room temperature.
All data points are an average of triplicate samples. Inhibition and IC50 data analysis was done with GraphPad Prism using a non-linear regression fit with a multiparamater, sigmoidal dose-response (variable slope) equation.

| Compound | IC50 (wild-type FLT3 receptor) [nM] | IC50 (MV4-11 cells) [nM] | IC50 (FLT3 571-993) [nM] |
| --- | --- | --- | --- |
| O=C(Nc1ccc(Oc2ccccc2)cc1)NC1CCN(c2ncnc3ccsc23)C1 (stereo not drawn) [Compound 13, 1-(4-Phenoxy-phenyl)-3-(1-thieno [3,2-d]pyrimidin-4-yl-pyrrolidin-3-yl)-urea] | > 5000 | 881 | – |
| O=C(Nc1ccc(OC2CCC2)nc1)NC1CCN(c2ncnc3ccsc23)C1 (stereo not drawn) [Compound 15, 1-(6-Cyclobutoxy-pyridin-3-yl)-3-(1-thieno [3,2-d]pyrimidin-4-yl-pyrrolidin-3-yl)-urea] | 1900 | 983 | – |
| O=C(Nc1ccc(OC2CCC2)nc1)OC1CCN(c2ncnc3ccsc23)C1 (stereo not drawn) [Compound 25, (6-Cyclobutoxy-pyridin-3-yl)-carbamic acid 1-thieno[3,2-d]pyrimidin-4-yl-pyrrolidin-3-yl ester] | 1600 | 345 | – |
| O=C(Nc1ccc(N2CCCC2)cc1)NC1CCN(c2ncnc3ccsc23)C1 (stereo not drawn) [Compound 19, 1-(4-Pyrrolidin-1-yl-phenyl)-3-(1-thieno [3,2-d]pyrimidin-4-yl-pyrrolidin-3-yl)-urea] | 2900 | 850 | – |
| CCN(CC)c1ccc(NC(=O)NC2CCN(c3ncnc4ccsc34)C2)cc1 (stereo not drawn) [Compound 18, 1-(4-Diethylamino-phenyl)-3-(1-thieno [3,2-d]pyrimidin-4-yl-pyrrolidin-3-yl)-urea] | 895 | 757 | – |
| O=C(Nc1ccc(Oc2ccccc2)cc1)OC1CCN(c2ncnc3ccsc23)C1 (stereo not drawn) [Compound 26, (4-Phenoxy-phenyl)-carbamic acid 1-thieno[3,2-d]pyrimidin-4-yl-pyrrolidin-3-yl ester] | 390 | 953 | – |

More lines, now with the values ahead:

| IC50 (wild-type FLT3 receptor) [nM] | IC50 (MV4-11 cells) [nM] | IC50 (FLT3 571-993) [nM] | Compound |
| --- | --- | --- | --- |
| 108 | 671 | 77 | CC(C)c1ccc(NC(=O)NC2CCN(c3ncnc4ccsc34)C2)cc1 (stereo not drawn) [Compound 11, 1-(4-Isopropyl-phenyl)-3-(1-thieno [3,2-d]pyrimidin-4-yl-pyrrolidin-3-yl)-urea] |
| 55 | 1300 | 41 | CC(C)c1ccc(NC(=O)NC2CCN(c3ncnc4sccc34)C2)cc1 (stereo not drawn) [Compound 9, 1-(4-Isopropyl-phenyl)-3-(1-thieno [2,3-d]pyrimidin-4-yl-pyrrolidin-3-yl)-urea] |
| 22 | 1300 | 64 | CC(C)c1ccc(NC(=O)OC2CCN(c3ncnc4ccsc34)C2)cc1 (stereo not drawn) [Compound 5, (4-Isopropyl-phenyl)-carbamic acid 1-thieno [3,2-d]pyrimidin-4-yl-pyrrolidin-3-yl ester] |
